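These data come from cells grown in 96-well plates and exposed to compound for 48 hours at five concentrations. At the GI50, growth is halved. TGI is the concentration that stops growth completely.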
Experiments:
Assay in all cases: NCI tumour cell line growth inhibition, 48 h
[1] = system: HL-60(TB) leukemia
[2] = system: M14 melanoma
[3] = system: MOLT-4 leukemia
[4] = system: DU-145 prostate
[5] = system: SNB-75 CNS
[6] = system: NCI/ADR-RES ovarian
[7] = system: MALME-3M melanoma
[8] = system: COLO 205 colon
[9] = system: CAKI-1 renal
[10] = system: HCT-15 colon
[11] = system: HCC-2998 colon
[12] = system: SF-295 CNS
[13] = system: OVCAR-5 ovarian
[14] = system: BT-549 breast
[15] = system: IGROV1 ovarian
[16] = system: A549 NSCLC
[17] = system: HOP-62 NSCLC
[18] = system: NCI-H522 lung
[19] = system: SK-MEL-28 melanoma
[20] = system: HS 578T breast
[21] = system: OVCAR-4 ovarian
[22] = system: EKVX NSCLC
[23] = system: SK-OV-3 ovarian
[24] = system: ACHN renal
[25] = system: LOX IMVI melanoma
[26] = system: MDA-MB-231 breast
[27] = system: RPMI-8226 leukemia
[28] = system: OVCAR-8 ovarian
[29] = system: CCRF-CEM leukemia
[30] = system: NCI-H460 lung
[31] = system: TK-10 renal
[32] = system: UO-31 renal
[33] = system: SK-MEL-5 melanoma
[34] = system: NCI-H23 lung
[35] = system: RXF 393 renal
[36] = system: SW-620 colon
[37] = system: T-47D breast
[38] = system: MDA-MB-435
[39] = system: K-562 leukemia
[40] = system: KM12 colon
[41] = system: U251 CNS
[42] = system: 786-0 renal
[43] = system: OVCAR-3 ovarian
[44] = system: SF-268 CNS
[45] = system: NCI-H226 lung
[46] = system: SF-539 CNS
[47] = system: HT29 colon
[48] = system: HCT-116 colon
[49] = system: UACC-257 melanoma
[50] = system: SK-MEL-2 melanoma
[51] = system: SN12C renal
[52] = system: PC-3 prostate
[53] = system: A498 renal
[54] = system: HOP-92 NSCLC
[55] = system: UACC-62 melanoma
[56] = system: MCF7 breast
[57] = system: SNB-19 CNS

Cc1cn(S(=O)(=O)c2ccccc2)c2c(OCc3ccccc3)cc(NC(=O)c3cc4cc([N+](=O)[O-])ccc4s3)cc12
TGI [1]: > 100 µM | TGI [2]: > 100 µM | TGI [3]: > 100 µM | TGI [4]: > 100 µM | TGI [5]: > 100 µM | TGI [6]: > 100 µM | TGI [7]: > 100 µM | TGI [8]: > 100 µM | TGI [9]: > 100 µM | TGI [10]: > 100 µM | TGI [11]: > 100 µM | TGI [12]: > 100 µM | TGI [13]: > 100 µM | TGI [14]: > 100 µM | TGI [15]: > 100 µM | TGI [16]: > 100 µM | TGI [17]: > 100 µM | TGI [18]: > 100 µM | TGI [19]: > 100 µM | TGI [20]: > 100 µM | TGI [21]: > 100 µM | TGI [22]: > 100 µM | TGI [23]: > 100 µM | TGI [24]: > 100 µM | TGI [25]: > 100 µM | TGI [26]: > 100 µM | TGI [27]: > 100 µM | TGI [28]: > 100 µM | TGI [29]: > 100 µM | TGI [30]: > 100 µM | TGI [31]: > 100 µM | TGI [32]: > 100 µM | TGI [33]: > 100 µM | TGI [34]: > 100 µM | TGI [35]: > 100 µM | TGI [36]: > 100 µM

O=C1N=C(Nc2nc(-c3csc(NC4=NC(=O)/C(=C\c5ccccc5)S4)n3)cs2)S/C1=C/c1ccccc1
GI50 [37]: > 50 µM | TGI [37]: > 50 µM | GI50 [38]: 14.7 µM | TGI [38]: > 50 µM | GI50 [1]: 14.3 µM | TGI [1]: 36.8 µM | GI50 [39]: 6.28 µM | TGI [39]: 48.9 µM | GI50 [40]: 11.2 µM | TGI [40]: > 50 µM | GI50 [2]: 4.63 µM | TGI [2]: 32.3 µM | GI50 [3]: 3.02 µM | TGI [3]: > 50 µM | GI50 [4]: 16.8 µM | TGI [4]: > 50 µM | GI50 [41]: 6.34 µM | TGI [41]: > 50 µM | GI50 [42]: 9.54 µM | TGI [42]: 34.9 µM | GI50 [6]: 15.9 µM | TGI [6]: > 50 µM | GI50 [43]: 20.8 µM | TGI [43]: > 50 µM | GI50 [8]: 30.3 µM | TGI [8]: > 50 µM | GI50 [9]: 29.2 µM | TGI [9]: > 50 µM | GI50 [10]: 11.2 µM | TGI [10]: > 50 µM | GI50 [11]: 8.2 µM | TGI [11]: 45.5 µM | GI50 [12]: 16.6 µM | TGI [12]: > 50 µM | GI50 [13]: 34 µM | TGI [13]: > 50 µM | GI50 [44]: 16.6 µM | TGI [44]: > 50 µM | GI50 [15]: 36.6 µM | TGI [15]: > 50 µM | GI50 [45]: 0.337 µM | TGI [45]: 12.8 µM | GI50 [16]: 16.3 µM | TGI [16]: > 50 µM | GI50 [17]: 7.97 µM | TGI [17]: 46.3 µM | GI50 [18]: 38.5 µM | TGI [18]: > 50 µM | GI50 [19]: > 50 µM | TGI [19]: > 50 µM | GI50 [20]: > 50 µM | TGI [20]: > 50 µM | GI50 [46]: 13.6 µM | TGI [46]: 39.7 µM | GI50 [47]: 25.7 µM | TGI [47]: > 50 µM | GI50 [22]: 12.7 µM | TGI [22]: > 50 µM | GI50 [48]: 3.5 µM | TGI [48]: 29 µM | GI50 [24]: 12.2 µM | TGI [24]: 46.3 µM | GI50 [49]: 12.2 µM | TGI [49]: 28.1 µM | GI50 [50]: > 50 µM | TGI [50]: > 50 µM | GI50 [25]: > 50 µM | TGI [25]: > 50 µM | GI50 [26]: 4.78 µM | TGI [26]: 18.8 µM | GI50 [27]: 0.629 µM | TGI [27]: 3.35 µM | GI50 [51]: 5.64 µM | TGI [51]: 20.6 µM | GI50 [52]: 8.98 µM | TGI [52]: 42.7 µM | GI50 [53]: > 50 µM | TGI [53]: > 50 µM | GI50 [28]: 15.6 µM | TGI [28]: > 50 µM | GI50 [30]: 12.8 µM | TGI [30]: > 50 µM | GI50 [31]: 10.1 µM | TGI [31]: 33.3 µM | GI50 [54]: 4.37 µM | TGI [54]: 20.5 µM | GI50 [55]: 6.4 µM | TGI [55]: 18.5 µM | GI50 [56]: 3.7 µM | TGI [56]: > 50 µM | GI50 [32]: 17.5 µM | TGI [32]: > 50 µM | GI50 [33]: 5.87 µM | TGI [33]: 33.4 µM | GI50 [34]: 17.6 µM | TGI [34]: > 50 µM | GI50 [35]: 18.5 µM | TGI [35]: > 50 µM | GI50 [57]: 49.1 µM | TGI [57]: > 50 µM | GI50 [36]: 31.7 µM | TGI [36]: > 50 µM

— PubChem BioAssay (NCI)
